A short description of assay [1]: (§1) Biochemical Assay: A variety of Ras proteins may be inhibited by compounds of the present invention (e.g., K-Ras, N-Ras, H-Ras, and mutants thereof at positions 12, 13 and 61, such as G12C, G12D, G12V, G12S, G13C, G13D, and Q61L, and others described herein). The purpose of this biochemical assay is to measure the ability of test compounds to covalently label nucleotide-loaded K-Ras isoforms. […] The sample is incubated at 25? C. for a time period of up to 24 hours prior to quenching by the addition of 10 uL of 5% Formic Acid. Quenched samples are centrifuged at 15000 rpm for 15 minutes in a benchtop centrifuge before injecting a 10 uL aliquot onto a reverse phase C4 column and eluting into the mass spectrometer with an increasing acetonitrile gradient in the mobile phase. Analysis of raw data may be carried out using Waters MassLynx MS software, with % bound calculated from the deconvoluted protein peaks for labeled and unlabeled K-Ras.

Assay [2] in a line: as §1. The source holds these as a separate data set.
Assay [3] in a line: as §1. The source holds these as a separate data set.
Assay [4] can be described thus: as §1. The source holds these as a separate data set.
Assay [5] can be described thus: as §1. This is another data set of the same source.

Regarding `C=CC(=O)N1CC(OCC(C(=O)N[C@H]2Cc3cc(cc(C(F)F)c3)-c3ccc4c(c3)c(c(-c3cccnc3C(C)OC)n4CC(F)(F)F)CC(C)(C)COC(=O)[C@@H]3CCCN(N3)C2=O)C(C)C)C1` (stereo not given in full), the IC50 in assay [1], in assay [2], in assay [3], in assay [4] and in assay [5] was more than 10 µM each time.
Turning to `CCn1c(-c2cccnc2C(C)OC)c2c3cc(ccc31)-c1cccc(c1)C[C@H](NC(=O)[C@H](C(C)C)N(C)C(=O)[C@H]1CCN(C(=O)C#CC3CCO3)C1)C(=O)N1CCC[C@H](N1)C(=O)OCC(C)(C)C2` (stereo not given in full), the 50% inhibitory concentration (IC50) (as a rule, the concentration that inhibits the measured activity by half) in assay [1] was “in the range around 5.5 µM”; in assay [2] it was “in the range around 5.5 µM”; in assay [3], “in the range around 0.55 µM”; in assay [4] it was less than 0.01 µM; in assay [5], “in the range around 5.5 µM”.
On to `C=CC(=O)N1CC[C@H](C(=O)N(C)[C@H](C(=O)N[C@H]2Cc3cc(O)cc(c3)-c3ccc4c(c3)c(c(-c3ccccc3CO)n4CC)CC(C)(C)COC(=O)[C@@H]3CCCN(N3)C2=O)C(C)C)C1`, for which the 50% inhibitory concentration (IC50) entry in assay [1] is “in the range around 0.55 µM”; in assay [2] it was “in the range around 0.55 µM”; in assay [3] it was “in the range around 5.5 µM”.
Take `C=CC(=O)Nc1cnc(C(=O)N(C)[C@H](C(=O)N[C@H]2Cc3cccc(c3)-c3ccc4c(c3)c(c(-c3cccnc3C(C)OC)n4CC)CC(C)(C)COC(=O)[C@@H]3CCCN(N3)C2=O)C(C)C)n1C` (stereo not given in full): the IC50 entry was “in the range around 5.5 µM” in assay [1]; “in the range around 5.5 µM” in assay [2]; “in the range around 0.055 µM” in assay [3]; “in the range around 0.055 µM” in assay [4]; “in the range around 5.5 µM” in assay [5].
`CCn1c(-c2cccnc2C(C)OC)c2c3cc(ccc31)-c1cc(O)cc(c1)C[C@H](NC(=O)[C@H](C(C)C)N(C)C(=O)c1ncc(NC(=O)/C=C/CN(C)C)n1C)C(=O)N1CCC[C@H](N1)C(=O)OCC(C)(C)C2` (stereo not given in full): the IC50 result in assay [1] is “in the range around 0.55 µM”; in assay [2] it was “in the range around 0.55 µM”; in assay [3] it was less than 0.01 µM; in assay [4], less than 0.01 µM; in assay [5], “in the range around 0.55 µM”.
Take `CCn1c(-c2cccnc2C(C)OC)c2c3cc(ccc31)-c1cccc(c1)C[C@H](NC(=O)[C@H](C(C)C)N(C)C(=O)[C@H]1CCN(C(=O)/C=C/CF)C1)C(=O)N1CCC[C@H](N1)C(=O)OCC(C)(C)C2` (stereo not given in full): the IC50 result in assay [1] is “in the range around 5.5 µM”; in assay [2], “in the range around 5.5 µM”; in assay [3], “in the range around 0.55 µM”; in assay [4] it was “in the range around 0.55 µM”; in assay [5] it was “in the range around 5.5 µM”.
Regarding `C=CC(=O)N1CC[C@H](C(=O)N(C)[C@H](C(=O)N[C@H]2Cc3cc(OC(=O)NCC(=O)O)cc(c3)-c3ccc4c(c3)c(c(-c3ccccc3CCOC)n4CC)CC(C)(C)COC(=O)[C@@H]3CCCN(N3)C2=O)C(C)C)C1`, the IC50 entry in assay [1] was “in the range around 5.5 µM”; in assay [2] it was “in the range around 5.5 µM”; in assay [3], “in the range around 0.55 µM”.
In the case of `CCn1c(-c2cccnc2[C@H](C)OC)c2c3cc(ccc31)-c1cc(O)cc(c1)C[C@H](NC(=O)[C@H](C(C)C)N(C)C(=O)c1nc(NC(=O)/C=C/CN(C)C)cs1)C(=O)N1CCC[C@H](N1)C(=O)OCC(C)(C)C2`, the half-maximal inhibitory concentration (IC50) result in assay [1] was “in the range around 5.5 µM”; in assay [3] it was “in the range around 0.055 µM”; in assay [5], “in the range around 5.5 µM”.
For the compound `C=CC(=O)N1CC[C@]2(CCN(C(=O)N(C)[C@H](C(=O)N[C@@H]3Cc4cc(O)cc(c4)-c4ccc5c(c4)c(c(-c4ccccc4CCOC)n5CC)CC(C)(C)COC(=O)[C@@H]4CCCN(N4)C3=O)C(C)C)C2=O)C1`, the IC50 result is “in the range around 5.5 µM” in assay [1], “in the range around 5.5 µM” in assay [2] and “in the range around 0.55 µM” in assay [3].
With `CCn1c(-c2cccnc2C(C)OC)c2c3cc(ccc31)-c1cc(cc(C(F)F)c1)C[C@H](NC(=O)C(COC1CN(C(=O)C#CC(C)(C)N(C)C)C1)C(C)C)C(=O)N1CCC[C@H](N1)C(=O)OCC(C)(C)C2` (stereo not given in full), the IC50 is more than 10 µM in assay [1]; more than 10 µM in assay [2]; more than 10 µM in assay [3]; “in the range around 0.55 µM” in assay [4]; more than 10 µM in assay [5].
Take `C=CC(=O)N1CC(OCC(C(=O)N[C@H]2Cc3cccc(c3)-c3ccc4c(c3)c(c(-c3cccnc3C(C)OC)n4CC(F)(F)F)CC(C)(C)COC(=O)[C@@H]3CCCN(N3)C2=O)C(C)C)C1` (stereo not given in full): the IC50 in assay [1] was more than 10 µM; in assay [2], more than 10 µM; in assay [3], more than 10 µM; in assay [4] it was “in the range around 5.5 µM”; in assay [5], more than 10 µM.
Consider `C=CC(=O)N1CC[C@H](C(=O)N(C)[C@H](C(=O)N[C@H]2Cc3cc(O)cc(c3)-c3ccc4c(c3)c(c(-c3ccncc3CCOC)n4CC)CC(C)(C)COC(=O)[C@@H]3CCCN(N3)C2=O)C(C)C)C1`, for which the half-maximal inhibitory concentration (IC50) result in assay [1], in assay [2] and in assay [3] was “in the range around 0.55 µM” throughout.
`C=CC(=O)N1CC[C@H](C(=O)N(C)[C@H](C(=O)N[C@H]2Cc3cc(OC(=O)CCC(=O)O)cc(c3)-c3ccc4c(c3)c(c(-c3ccccc3CCOC)n4CC)CC(C)(C)COC(=O)[C@@H]3CCCN(N3)C2=O)C(C)C)C1`: the half-maximal inhibitory concentration (IC50) result in assay [1] was “in the range around 5.5 µM”; in assay [2], “in the range around 0.55 µM”; in assay [3], “in the range around 5.5 µM”.
As to `CCn1c(-c2ccccc2CCOC)c2c3cc(ccc31)-c1cc(O)cc(c1)C[C@H](NC(=O)[C@H](C(C)C)N(C)C(=O)[C@H]1CCN(C(=O)/C=C/CN(C)C)C1)C(=O)N1CCC[C@H](N1)C(=O)OCC(C)(C)C2`, the figures for the IC50 result in assay [1], in assay [2] and in assay [3] were “in the range around 0.55 µM”, “in the range around 0.55 µM” and “in the range around 5.5 µM”, respectively.
For the compound `C=CC(=O)N1CC2(CCN([C@H](C(=O)N[C@H]3Cc4cc(O)cc(c4)-c4ccc5c(c4)c(c(-c4ccccc4CCOC)n5CC)CC(C)(C)COC(=O)[C@@H]4CCCN(N4)C3=O)C(C)C)C2=O)C1`, the half-inhibitory concentration (IC50) entry in assay [1] was “in the range around 5.5 µM”.
For the compound `CCn1c(-c2cccnc2C(C)OC)c2c3cc(ccc31)-c1cccc(c1)C[C@H](NC(=O)[C@H](C(C)C)N(C)C(=O)[C@H]1CCN(C(=O)C#C[C@@H]3COCCN3C)C1)C(=O)N1CCC[C@H](N1)C(=O)OCC(C)(C)C2` (stereo not given in full), the IC50 result is “in the range around 5.5 µM” in assay [1]; “in the range around 5.5 µM” in assay [2]; “in the range around 5.5 µM” in assay [3]; “in the range around 0.055 µM” in assay [4]; more than 10 µM in assay [5].
On to `CCn1c(-c2cnccc2COC)c2c3cc(ccc31)-c1cc(O)cc(c1)C[C@H](NC(=O)[C@H](C(C)C)N(C)C(=O)[C@H]1CCN(C(=O)C#CCN(C)C)C1)C(=O)N1CCC[C@H](N1)C(=O)OCC(C)(C)C2` (atropisomer, axis not shown), for which the concentration for half-maximal inhibition (IC50) in assay [3] and in assay [4] was less than 0.01 µM each time.
For the compound `C=CC(=O)N1CC[C@H](C(=O)N(C)[C@H](C(=O)N[C@H]2Cc3cccc(c3)-c3ccc4c(c3)c(c(-c3cc(C5=CCN(C)CC5)cnc3C(C)OC)n4CC)CC(C)(C)COC(=O)[C@@H]3CCCN(N3)C2=O)C(C)C)C1` (stereo not given in full), the IC50 in assay [1] was more than 10 µM; in assay [2], more than 10 µM; in assay [3], “in the range around 5.5 µM”; in assay [4], “in the range around 5.5 µM”; in assay [5], more than 10 µM.
As to `C=CC(=O)N1CC(OCC(C(=O)N[C@H]2Cc3nc(cs3)-c3ccc4c(c3)c(c(-c3cccnc3C(C)OC)n4CC)CC(C)(C)COC(=O)[C@@H]3CCCN(N3)C2=O)C(C)C)C1` (stereo not given in full), the 50% inhibitory concentration (IC50) entry in assay [1] is “in the range around 5.5 µM”; in assay [2], “in the range around 5.5 µM”; in assay [3] it was “in the range around 5.5 µM”; in assay [4], “in the range around 0.55 µM”; in assay [5], “in the range around 5.5 µM”.
Regarding `C=CC(=O)N1CC[C@H](C(=O)N(C)[C@H](C(=O)N[C@H]2Cc3cc(O)cc(c3)-c3ccc4c(c3)c(c(-c3cccnc3[C@H](C)OC)n4CC)CC(C)(C)COC(=O)[C@@H]3CCCN(N3)C2=O)C(C)C)C1` (atropisomer M), the half-inhibitory concentration (IC50) result is “in the range around 5.5 µM” in assay [1]; “in the range around 5.5 µM” in assay [2]; “in the range around 5.5 µM” in assay [3]; “in the range around 0.55 µM” in assay [4]; “in the range around 5.5 µM” in assay [5].
Take `C=CC(=O)N1CC[C@H](C(=O)N(C)[C@H](C(=O)N[C@H]2Cc3cc(O)cc(c3)-c3cc(F)c4c(c3)c(c(-c3ccccc3CCOC)n4CC)CC(C)(C)COC(=O)[C@@H]3CCCN(N3)C2=O)C(C)C)C1`: in assay [2], the IC50 entry is “in the range around 5.5 µM”.
Take `C=CC(=O)N1CC[C@H](C(=O)N(C)[C@H](C(=O)N[C@H]2Cc3cc(O)cc(c3)-c3ccc4c(c3)c(c(-c3cnccc3[C@H](C)OC)n4CC)CC(C)(C)COC(=O)[C@@H]3CCCN(N3)C2=O)C(C)C)C1`: the IC50 entry in assay [1], in assay [2], in assay [3] and in assay [5] was “in the range around 0.055 µM” each time.
Turning to `C=CC(=O)C1C[C@@H](C(=O)N(C)[C@H](C(=O)N[C@@H]2Cc3cc(O)cc(c3)-c3cnc4c(c3)c(c(-c3ccccc3CCOC)n4CC)CC(C)(C)COC(=O)[C@@H]3CCCN(N3)C2=O)C(C)C)CN1` (stereo not given in full), the IC50 result in assay [1], in assay [2] and in assay [4] was “in the range around 5.5 µM” throughout.
As to `C=CC(=O)N1CC(OCC(C(=O)N[C@H]2Cc3cccc(c3)-c3ccc4c(c3)c(c(-c3cccnc3C(C)OC)n4CC)CC(C)(C)COC(=O)[C@@H]3CCCN(N3)C2=O)C(C)C)C1` (stereo not given in full), the half-maximal inhibitory concentration (IC50) is more than 10 µM in assay [1], “in the range around 5.5 µM” in assay [3] and “in the range around 5.5 µM” in assay [4].
